Measurements: patent publication US20230210108A1, “ANTIMICROBIAL COATING FOR POLYMERIC FOOD PACKAGING” (VACOPAK INDUSTRIES LTD., priority 2020, published 2023)

Legend:
[1] = test system: Gram-negative bacteria E. Coli; test: Antimicrobial activity of coatings on PET surfaces against Gram-negative bacteria (CFU count); assay type: cell-based; details: agent 5 mg/ml embedded in chitosan or alginate matrix, coated on PET; FIG. 5A
Method: (§1) Air plasma was applied onto each surface for three (3) minutes prior to coating. The surfaces used in the Examples were polyethylene (PET) sheets. The coating composition was prepared by suspending polymer(s) in water together with the antimicrobial agent(s). The coating composition was then applied on the surface, forming a layer of about 25 µm, using BIUGED and BGD219 instruments in a speed of 6 mm/sec, as shown in FIG. 4. Each coating composition was prepared a few hours, or about 24 hours prior to being applied on the surface. The antimicrobial activity of several coatings was tested against Gram-negative bacteria E. Coli and Gram-positive bacteria Listeria (FIGS. 5A and 5B, respectively, n=3 per each test). Each test was repeated twice (suffix A and B; in FIGS. 5A to 5B).

[2] = test system: Gram-positive bacteria Listeria; test: Antimicrobial activity of coatings on PET surfaces against Gram-positive bacteria (CFU count); assay type: cell-based; details: agent 5 mg/ml embedded in chitosan or alginate matrix, coated on PET; FIG. 5B
Method: as §1

Row | Molecule | reduction of bacterial count (CFU) [1] | reduction of viral count, as measured in colony-forming units (CFU) [2]
1 | O=C1O[C@H]([C@@H](O)CO)C(O)=C1O [ascorbic acid, Ascorbic acid] | at least one order of magnitude | at least one order of magnitude
2 | CCCCCCCCCCCC(=O)N[C@@H](CCCN=C(N)N)C(=O)OCC [lauryl alginate, Lauryl alginate] | at least one order of magnitude | at least one order of magnitude
3 | Nisin |  | high cytotoxicity
